Measurements: US9221822B2, “Thiazolopyrimidine modulators as immunosuppressive agents” (Katholieke Universiteit Leuven, K.U.Leuven R&D, priority 2009, dated 2015)
pIC50: −log10 of the molar value.

What follows are compounds tested on Human peripheral blood mononuclear cells (PBMCs) as Responder cells, RPMI 1788 Stimulator cells (assay: Mixed Lymphocyte Reaction (MLR) test). Conditions: Homo sapiens, RPMI-1788, lowest concentration giving 50% inhibition of the MLR; 6 days coculture, 3H-thymidine incorporation.
Type: cell-based
How it was run: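 Human PBMC responders (0.12×10^6) were cocultured 6 days with mitomycin C-treated RPMI 1788 stimulators (0.045×10^6) and compound in RPMI 1640 with 10% FCS, in triplicate. A ^3H-thymidine pulse on day 5, harvested 18 h later, measured proliferation (cpm), converted to % inhibition versus a compound-free MLR.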

Compound | pIC50
Nc1nc(N2CCN(CC(=O)Nc3nccs3)CC2)c2nc(-c3ccc(F)cc3)[nH]c2n1 [Example 417, 2-(4-(2-amino-8-(4-fluorophenyl)-9H-purin-6-yl)piperazin-1-yl)-N-(thiazol-2-yl)acetamide] | < 5.00
COc1ccc(OCC(=O)N2CCN(c3nc(N)nc4sc(CCc5cccc(OC)c5)nc34)CC2)cc1 [Example 253, 1-(4-(5-amino-2-(3-methoxyphenethyl)thiazolo[5,4-d]pyrimidin-7-yl)piperazin-1-yl)-2-(4-methoxyphenoxy)ethanone] | 6.15
Nc1nc(N2CC[C@@H](NC(=O)c3ccc(Cl)cc3)C2)c2cc(-c3ccc(F)cc3)sc2n1 [Example 341, (R)—N-(1-(2-amino-6-(4-fluorophenyl)thieno[2,3-d]pyrimidin-4-yl)pyrrolidin-3-yl)-4-chlorobenzamide] | 5.14
O=C(COc1ccc(Cl)cc1)N1CCN(c2ncnc3sc(-c4ccc(F)cc4)nc23)CC1 [Example 301, 1-(4-(2-(4-fluorophenyl)thiazolo[5,4-d]pyrimidin-7-yl)piperazin-1-yl)-2-(4-chlorophenoxy)ethanone] | 6.17
Nc1nc(N2CCN(C(=O)COc3ccc(Cl)cc3)CC2)c2nc(-c3ccncc3)sc2n1 [Example 281, 1-(4-(5-amino-2-(pyridin-4-yl)thiazolo[5,4-d]pyrimidin-7-yl)piperazin-1-yl)-2-(4-chlorophenoxy)ethanone] | 7.39
CCCCc1nc(N2CCN(C(=O)COc3ccc(Cl)cc3)CC2)c2cc(-c3ccc(F)cc3)sc2n1 [Example 313, 1-(4-(2-butyl-6-(4-fluorophenyl)thieno[2,3-d]pyrimidin-4-yl)piperazin-1-yl)-2-(4-chlorophenoxy)ethanone] | 5.88
Nc1nc(N2CCC(C(=O)c3ccccc3)CC2)c2cc(-c3ccc(F)cc3)sc2n1 [Example 348, (1-(2-amino-6-(4-fluorophenyl)thieno[2,3-d]pyrimidin-4-yl)piperidin-4-yl)(phenyl)methanone] | 5.08
O=C(COc1ccc(Cl)cc1)N1CCN(c2ncnc3sc(CCc4ccc(F)cc4)nc23)CC1 [Example 303, 1-(4-(2-(4-fluorophenethyl)thiazolo[5,4-d]pyrimidin-7-yl)piperazin-1-yl)-2-(4-chlorophenoxy)ethanone] | 5.25
Nc1nc(N2CCN(C(=O)COc3ccc(Cl)cc3)CC2)c2nc(-c3ccc(Br)cc3)[nH]c2n1 [Example 391, 1-(4-(2-amino-8-(4-bromophenyl)-9H-purin-6-yl)piperazin-1-yl)-2-(4-chlorophenoxy)ethanone] | 6.59
COc1ccc(CNC(=O)N2CCN(c3nc(N)nc4sc(-c5cccnc5)nc34)CC2)cc1 [Example 278, 4-(5-amino-2-(pyridin-3-yl)thiazolo[5,4-d]pyrimidin-7-yl)-N-(4-methoxybenzyl)piperazine-1-carboxamide] | 7.10
Nc1nc(N2CCN(CC(=O)N3CCOCC3)CC2)c2nc(-c3ccc(F)cc3)sc2n1 [Example 38, 2-(4-(5-amino-2-(4-fluorophenyl)thiazolo[5,4-d]pyrimidin-7-yl)piperazin-1-yl)-1-morpholinoethanone] | 5.32
Nc1nc(N2CCN(C(=O)COc3cccc([N+](=O)[O-])c3)CC2)c2nc(-c3ccc(F)cc3)sc2n1 [Example 129, 5-amino-2-(4-fluorophenyl)-7-(4-[2-(3-nitrophenoxy)acetyl]-piperazin-1-yl)-thiazolo[5,4-d]pyrimidine] | 6.54
Cc1cccc(NC(=O)N2CCN(c3nc(N)nc4sc(-c5ccccc5)nc34)CC2)c1 [Example 220, 4-(5-amino-2-phenylthiazolo[5,4-d]pyrimidin-7-yl)-N-m-tolylpiperazine-1-carboxamide] | 6.77
CCCCCc1nc2c(N3CCN(C(=O)COc4ccc(OC)cc4)CC3)nc(N)nc2s1 [Example 296, 1-(4-(5-amino-2-pentylthiazolo[5,4-d]pyrimidin-7-yl)piperazin-1-yl)-2-(4-methoxyphenoxy)ethanone] | 5.12
Cc1ccc(-c2nc3c(N4CCN(C(=O)COc5ccc(Cl)cc5)CC4)nc(N)nc3[nH]2)cc1 [Example 396, 1-(4-(2-amino-8-p-tolyl-9H-purin-6-yl)piperazin-1-yl)-2-(4-chlorophenoxy)ethanone] | 6.33
N#Cc1ccc(NC(=O)N2CCN(c3nc(N)nc4sc(Cc5ccc(F)cc5)nc34)CC2)cc1 [Example 232, 4-(5-amino-2-(4-fluorobenzyl)thiazolo[5,4-d]pyrimidin-7-yl)-N-(4-cyanophenyl)piperazine-1-carboxamide] | 6.07
Nc1nc(N2CCN(CCOc3ccccc3)CC2)c2nc(CCc3ccc(F)cc3)oc2n1 [Example 197, 5-amino-2-[2-(4-fluorophenyl)ethyl]-7-(4-(2-phenoxyethyl)piperazin-1-yl)-oxazolo[5,4-d]pyrimidine] | 5.71

Compound | pIC50
Nc1nc(N2CCN(C(=O)COc3ccccc3)CC2)c2nc(-c3ccc(F)cc3)[nH]c2n1 [Example 401, 1-(4-(2-amino-8-(4-fluorophenyl)-9H-purin-6-yl)piperazin-1-yl)-2-phenoxyethanone] | 5.96
Cc1cccc(NC(=O)N2CCN(c3nc(N)nc4sc(CCc5ccc(F)cc5)nc34)CC2)c1 [Example 133, 5-amino-2-[2-(4-fluorophenyl)ethyl]-7-(4-m-tolylcarbamoylpiperazin-1-yl)-thiazolo[5,4-d]pyrimidine] | < 5.00
Cc1ccc(CCc2nc3c(N4CCN(C(=O)COc5ccc(Cl)cc5)CC4)nc(N)nc3s2)cc1 [Example 260, 1-(4-(5-amino-2-(4-methylphenethyl)thiazolo[5,4-d]pyrimidin-7-yl)piperazin-1-yl)-2-(4-chlorophenoxy)ethanone] | 6.09
Nc1nc(N2CCN(C(=O)COc3ccc(Cl)cc3)CC2)c2nc(-c3ccccn3)sc2n1 [Example 282, 1-(4-(5-amino-2-(pyridin-2-yl)thiazolo[5,4-d]pyrimidin-7-yl)piperazin-1-yl)-2-(4-chlorophenoxy)ethanone] | 6.64
Nc1nc(N2CCN(C(=O)c3cccc4ccccc34)CC2)c2nc(-c3ccc(F)cc3)[nH]c2n1 [Example 406, (4-(2-amino-8-(4-fluorophenyl)-9H-purin-6-yl)piperazin-1-yl)(naphthalen-1-yl)methanone] | 5.19
COc1ccc(OCC(=O)N2CCN(c3ncnc4sc(-c5ccc(F)cc5)nc34)CC2)cc1 [Example 300, 1-(4-(2-(4-fluorophenyl)thiazolo[5,4-d]pyrimidin-7-yl)piperazin-1-yl)-2-(4-methoxyphenoxy)ethanone] | 5.26
NC(=O)c1nc(N2CCN(C(=O)COc3ccc(Cl)cc3)CC2)c2cc(-c3ccc(F)cc3)sc2n1 [Example 355, 4-(4-(2-(4-chlorophenoxy)acetyl)piperazin-1-yl)-6-(4-fluorophenyl)thieno[2,3-d]pyrimidine-2-carboxamide] | < 5.00
Nc1nc(SCc2ccccc2)c2nc(-c3ccc(F)cc3)sc2n1 [Example 28, 7-(benzylthio)-2-(4-fluorophenyl)thiazolo[5,4-d]pyrimidin-5-amine] | < 5.00
Nc1nc(N2CCN(C(=O)COc3ccc(Cl)cc3)CC2)c2nc(CCc3ccc(Br)cc3)sc2n1 [Example 299, 1-(4-(5-amino-2-(4-bromophenethyl)thiazolo[5,4-d]pyrimidin-7-yl)piperazin-1-yl)-2-(4-chlorophenoxy)ethanone] | 5.51
Nc1nc(N2CCCN(C(=O)COc3ccc(Cl)cc3)CC2)c2nc(-c3ccc(F)cc3)[nH]c2n1 [Example 421, 1-(4-(2-amino-8-(4-fluorophenyl)-9H-purin-6-yl)-1,4-diazepan-1-yl)-2-(4-chlorophenoxy)ethanone] | 5.43
Nc1nc(N2CCN(C(=O)COc3ccc(Cl)cc3)CC2)c2nc(-c3ccc(C(F)(F)F)cc3)[nH]c2n1 [Example 394, 1-(4-(2-amino-8-(4-(trifluoromethyl)phenyl)-9H-purin-6-yl)piperazin-1-yl)-2-(4-chlorophenoxy)ethanone] | 6.20
Nc1nc(N2CCN(c3nccs3)CC2)c2nc(CCc3ccc(F)cc3)sc2n1 [Example 140, 5-amino-2-[2-(4-fluorophenyl)ethyl]-7-(4-thiazol-2-yl-piperazine-1-yl)-thiazolo[5,4-d]pyrimidine] | 5.05
Nc1nc(N2CCN(C(=O)COc3ccc(Cl)cc3)CC2)c2nc(-c3ccc(F)cc3)sc2n1 [Example 45, 1-(4-(5-amino-2-(4-fluorophenyl)thiazolo[5,4-d]pyrimidin-7-yl)piperazin-1-yl)-2-(4-chlorophenoxy)ethanone] | 6.52
Cc1ccc(CCc2nc3c(N4CCN(C(=O)COc5ccc(Br)cc5)CC4)nc(N)nc3s2)cc1 [Example 258, 1-(4-(5-amino-2-(4-methylphenethyl)thiazolo[5,4-d]pyrimidin-7-yl)piperazin-1-yl)-2-(4-bromophenoxy)ethanone] | 6.03
COc1cccc(C(=O)N2CCN(c3nc(N)nc4[nH]c(-c5ccc(F)cc5)nc34)CC2)c1 [Example 402, (4-(2-amino-8-(4-fluorophenyl)-9H-purin-6-yl)piperazin-1-yl)(3-methoxyphenyl)methanone] | < 5.00
Cc1ccc(NC(=O)N2CCN(c3nc(N)nc4sc(-c5ccc(F)cc5)nc34)CC2)cc1 [Example 42, 4-(5-amino-2-(4-fluorophenyl)-thiazolo[5,4-d]pyrimidin-7-yl)-N-p-tolylpiperazine-1-carboxamide] | 6.15

Same assay, conditions: lowest concentration giving 50% inhibition of the MLR; 6 days coculture, 3H-thymidine incorporation

Compound | pIC50
Nc1nc(N2CCN(C(=O)COc3ccc(Br)cc3)CC2)c2nc(-c3ccc(F)cc3)sc2n1 [Example 128, 5-amino-2-(4-fluorophenyl)-7-(4-[2-(4-bromophenoxy)acetyl]-piperazin-1-yl)-thiazolo[5,4-d]pyrimidine] | 6.42
Nc1nc(NCc2ccccc2)c2cc(-c3ccc(F)cc3)sc2n1 [Example 327, 2-amino-4-N-benzylamino-6-(4-fluorophenyl)-thieno[2,3-d]pyrimidine] | 5.17
